For 9 molecules, IC50 results are on record in patent US9862711B2, “Pyrazine derivatives as phosphatidylinositol 3-kinase inhibitors” (NOVARTIS AG, priority 2014, dated 2018).

Some results are limits rather than exact numbers.

For experiment [1], the system named is IL-8-induced neutrophil shape change in human whole blood. The experiment is described as follows: Whole blood neutrophil shape change assay (Assay L). It counts as cell-based. The following applies: 2 nM IL-8, neutrophil shape change by flow cytometry, read-out: Assay L WBSC IC50. Here is the method: Whole Blood Neutrophil Shape Change Assay (L)
A flow cytometry based method used to measure the inhibition of IL-8 (interleukin-8)-induced neutrophil shape change in human whole blood.
IL-8 was made up to 2 μM stocks in 0.1% bovine serum albumin/PBS and stored at −80° C. On the day IL-8 was diluted in PBS (phosphate buffered saline) 10 minutes before use. IL-8 was used at final concentration of 2 nM and a concentration range from […] to 200 nM for the donor dose response curve.
Assay fixative solution was prepared fresh each day from 10× concentrated CellFIX™ solution diluted 1:10 in sterile distilled water and then 1:4 with PBS. Assay fixative solution was kept on ice prior to use.
A 10× lysis buffer was prepared in advance by dissolving 20.75 g […] and 2.5 g KHCO3 in 250 ml sterile H2O. This 10× lysis buffer was filtered under sterile conditions and stored for up to two weeks at 4° C. On the day a 1× lysis solution was prepared with sterile distilled H2O and kept on ice prior to use.
The test compounds were prepared as 10 mM stock solutions in 100% DMSO and were stored at 4° C. Once in use for an assay 10 mM stock compounds were thawed and stored at RT protected from light. Compound dilutions were prepared fresh on the day. The first series of dilutions in 100% DMSO were done first thing in the morning. Only once blood had been collected and arrived in laboratory was the next set of dilutions into PBS carried out (1:10 PBS, 10% DMSO). This limited the exposure of diluted compound to plastic and made sure the exposure timing was consistent between assays. Compounds were added to the deep 96 well plates at 10× the final desired concentration (with addition of blood final [DMSO]=1%).
Table 3 illustrates the compound dilution series used in human whole blood neutrophil shape change assay.
On the day of running the assay, assay fixative buffer and 1× lysis solutions were prepared and stored on ice. Compound dilutions in 100% DMSO were prepared as described previously. Human whole blood was collected in K2 EDTA Vacutainers. Once blood was in the laboratory, compound dilutions into PBS were carried out as described previously and depicted in Table 1. 10 μl of 10× final compound concentration was added to appropriate wells of a deep 96-well plate except controls where 10 μl of 10% DMSO was added in place of compound, as outlined in the dilution series in Table 1. The outer wells of the deep well assay plate were filled with 1200 μl of sterile distilled H2O in an effort to limit edge effects (rows A1-H1, A1-A12, A12-H12). An IL-8 dose response was determined for each blood donor examined, to monitor the donor response to IL-8. At this step in assay preparation for the IL-8 dose response samples 10 μl of PBS was added to designated wells. In addition the assay window without DMSO was also assessed each day. For such samples at this step in assay preparation 10 μl of PBS was added in the place of 10% DMSO.
80 μl of whole blood was added to compound/10% DMSO/PBS and mixed once gently upon addition. Lids were placed on the 96 well plates and samples were incubated for 15 minutes at 37° C. in a water-bath.
Following the compound pre-incubation 10× final IL-8 was added to appropriate wells (10 μl of 20 nM working stock IL-8, final IL-8 concentration in blood=2 nM) and 10 μl of PBS was added to the un-stimulated controls. 10× final dose response range IL-8 was also added to designated wells (final concentration range on assay plate was 200 nM to 0.0005 nM, 1:5 serial dilution in PBS). The IL-8 and PBS were added to appropriate wells across all assay plates in the same sequence as the blood to compound addition. Once added to all assay plates, samples were mixed quickly once to ensure even distribution of IL-8. Samples were incubated for 5 minutes at 37° C. in a water-bath. Following the incubation sample plates were transferred to ice where 250 μl of chilled Assay Fixative Buffer was added promptly to all wells. […]
(In general: A flow cytometer gives signals particle by particle.)

For a further experiment, the target named is mTOR (Homo sapiens (Human), UniProt P42345). The experiment is described as follows: Lanthascreen kinase binding assay (Assay G). The following applies: GST-mTOR, Tracer-314. The source says:
Lanthascreen™ Kinase Binding Assay for mTOR (G)
Binding Assays are based on the binding and displacement of an Alexa Fluor® 647-labeled, ATP-competitive kinase inhibitors to the kinase of interest. Invitrogen's “Kinase Tracers” have been developed to address a wide range of kinase targets and are based on ATP-competitive kinase inhibitors, making them suitable for detection of any compounds that bind to the ATP site or to an allosteric site altering the conformation of the ATP site.
In the Lanthascreen™ kinase binding assay, the donor (Eu^3+-anti-GST (glutathione 5-transferase) antibody) is excited at 340 nm and will transfer its energy to the acceptor (Alexa Fluor® 647-labeled ATP-competitive kinase inhibitor=Tracer-314). The emission from the Tracer-314 (Alexa Fluor® 647 inhibitor) can be monitored with a filter centered at 665 nm because it is located between the emission peaks of the donor, which is measured at 615/620 nm. The binding of both, the Tracer-314 and Eu^3+-anti-GST antibody, to the kinase results in a high degree of FRET from the Eu^3+-donor fluorophore to the Alexa-Fluor® 647-acceptor fluorophore on the Tracer-314. Binding of an inhibitor to the kinase competes for binding with the tracer, resulting in a loss of FRET.
50 nL of compound dilutions were dispensed onto white 384-well small volume polystyrene plate. Then 5 μL of GST-mTOR and Europium-anti-GST antibody followed by 5 μL of tracer-314 (final assay volume 10 μL) are incubated at RT. The standard reaction buffer for the Lanthascreen™ kinase binding assay contained 50 mM HEPES pH 7.5, 5 mM MgCl2, 1 mM EGTA, 0.01% Pluronic F-127. Plates are read 60 mins later in a Synergy2 reader using an integration time of 0.2 microseconds and a delay of 0.1 microseconds.
To calculate the emission ratio, the signal emitted at 665 nm from the acceptor (Alexa Fluor® 647-labeled Tracer-314) is divided by the signal emitted at 620 nm from the donor (Eu^3+ anti-GST antibody).
Control for the 0% inhibition was given by the solvent vehicle of the compounds (90% DMSO in H2O). Control for the relative 100% inhibition was performed by adding 10 μM in the mix containing GST-mTOR and Europium anti-GST antibody. An additional control for the absolute 0% inhibition is given by Eu^3+ anti-GST antibody without GST-mTOR. Standard compounds for the lipid kinase panel profiling were used as a reference and included in all assay plates in the form of 8 dilution points.
In general terms: In TR-FRET formats the signal depends on donor and acceptor labels being close together.

As a reminder, the IC50 is the point on the concentration scale where inhibition reaches its midpoint. Turning to `Cc1ncc(-c2cncc(-c3cc(S(=O)(=O)NCCCO)ccc3C)n2)s1` [Example 1, N-(3-Hydroxy-propyl)-4-methyl-3-[6-(2-methyl-thiazol-5-yl)-pyrazin-2-yl]-benzenesulfonamide], the IC50 in experiment [1] turned out to be 1330 nM; at mTOR, 5250 nM.
Regarding `Cc1ccc(S(=O)(=O)NCC(C)(C)O)cc1-c1cncc(-c2cn(C)nc2C)n1` [Example 2, 3-[6-(1,3-Dimethyl-1H-pyrazol-4-yl)-pyrazin-2-yl]-N-(2-hydroxy-2-methyl-propyl)-4-methyl-benzenesulfonamide], the IC50 amounted to 266 nM in experiment [1] and 1180 nM on mTOR.
`Cc1ccc(S(=O)(=O)NCCC(C)(C)O)cc1-c1cncc(-c2cn(C)nc2C)n1` [Example 3, 3-[6-(1,3-Dimethyl-1H-pyrazol-4-yl)-pyrazin-2-yl]-N-(3-hydroxy-3-methyl-butyl)-4-methyl-benzenesulfonamide]: the half-maximal inhibitory concentration (IC50) in experiment [1] came out at 1080 nM; on mTOR, 3850 nM.
As to `Cc1ccc(S(=O)(=O)NCC2(C)COC2)cc1-c1cncc(-c2cn(C)nc2C)n1` [Example 4, Trans 3-[6-(1,3-Dimethyl-1H-pyrazol-4-yl)-pyrazin-2-yl]-4-methyl-N-(3-methyl-oxetan-3-ylmethyl)-benzenesulfonamide], the IC50 amounted to 548 nM in experiment [1] and 890 nM at mTOR.
As for `Cc1ncc(-c2cncc(-c3cc(S(=O)(=O)N[C@H]4CC[C@H](O)CC4)ccc3C)n2)s1` [Example 5, Trans N-(4-Hydroxycyclohexyl)-4-methyl-3-(6-(2-methylthiazol-5-yl)pyrazin-2-yl)benzenesulfonamide], the IC50 in experiment [1] was found to be 179 nM; at mTOR it was 4770 nM.
For the molecule `Cc1ccc(S(=O)(=O)NCC(C)(C)CO)cc1-c1cncc(-c2cn(C)nc2C)n1` [Example 8, 3-[6-(1,3-Dimethyl-1H-pyrazol-4-yl)-pyrazin-2-yl]-N-(3-hydroxy-2,2-dimethyl-propyl)-4-methyl-benzenesulfonamide], the IC50 in experiment [1] is 625 nM; at mTOR it was 1950 nM.
For `Cc1ccc(S(=O)(=O)NCCC(C)(C)O)cc1-c1cncc(-c2cnn(CCN3CCOCC3)c2)n1` [Example 9, N-(3-Hydroxy-3-methyl-butyl)-4-methyl-3-{6-[1-(2-morpholin-4-yl-ethyl)-1H-pyrazol-4-yl]-pyrazin-2-yl}-benzenesulfonamide], the figures for the IC50 (in experiment [1]; on mTOR) were 598 nM and greater than 9100 nM, respectively.
As for `Cc1ccc(S(=O)(=O)NCCC(C)(C)O)cc1-c1cncc(-c2cn(CCN3CCOCC3)nc2C)n1` [Example 10, N-(3-Hydroxy-3-methyl-butyl)-4-methyl-3-{6-[3-methyl-1-(2-morpholin-4-yl-ethyl)-1H-pyrazol-4-yl]-pyrazin-2-yl}-benzenesulfonamide], the IC50 in experiment [1] was 663 nM; on mTOR, 9800 nM.
The corresponding values for `Cc1ccc(S(=O)(=O)N[C@H]2CC[C@H](O)CC2)cc1-c1cncc(-c2cccnc2)n1` [Example 11, Trans N-(4-Hydroxy-cyclohexyl)-4-methyl-3-(6-pyridin-3-yl-pyrazin-2-yl)-benzenesulfonamide] are 752 nM and 6240 nM.
